Marks after values point to notes of the source that are not given here.
Experiments:
[1] = tested on: Sprague Dawley rats; assay: GC-MS metabolomics of liver from rats exposed to clofibrate; type: in vivo; conditions: rat liver, 250 mg/kg/d
Experimental: In one embodiment, the hepatotoxicant is clofibrate. Clofibrate or vehicle is administered orally (0, 50, 250 mg/kg/d) to groups of 6 rats and serum and livers are collected 6 and 24 h after either a single or 14 daily doses. Global biochemical profiles are determined by LC-MS and GC-MS and components highly perturbed by clofibrate exposure are identified by the methods described above. […] Rats (6 per group) were dosed by gavage with vehicle, 50 or 250 mg/kg clofibrate per day for 1 (single dose) or 14 days (repeated dose). These groups are referred to as “day 1” and ‘day 14 (d 1 and d14).” Liver and serum were collected at 6 and 24 h post-dosing in the day 1 and day 14. In detail, a single dose of clofibrate or vehicle was administered by gavage (0, 50 and 250 mg/kg) to groups of 18 male Sprague Dawley rats at 11 wks age. Six rats per dose group were euthanized at 6 and 24 h post-dose. Serum (for metabolomics and alanine aminotransferase (ALT), and aspartate aminotransferase (AST)), liver lobes (for histology), and frozen liver and urine (for metabolomics) were collected. Six rats per dose group were placed in metabolism cages for urine collection at −24-0 h, 0-6 h, 6-24 h and 24-48 h. These rats were removed from metabolism cages at 48 h post-dose, for blood and liver collection. The detailed study design is set forth in Chart 1. For GC-MS, liver was extracted with CHCl3:MeOH mixtures. Organic residue was derivitized with BSTFA and dried aqueous residues were derivitized with methoxyamine HCl/BSTFA. Samples were injected with 10:1 split into an Agilent 6890 gas chromatograph. A Leco Pegasus III TOFMS was used. Ions were generated at 70 eV with 3.2 mA ionization current; 25 spectra/s were recorded for 60-800 m/z. Acceleration voltage activated after 180 s solvent delay. Detector voltage: 1750 V. Data were processed with Leco ChromaTOF software. Automatic peak detection and mass spectrum deconvolution were performed using 1.33 s peak width. Peaks with S/N less than 20 were rejected. Component identification was accomplished with the NIST 98' MS library and, in some cases, verified with standards. Components with similarity greater than 600 were used for analysis.

[2] = tested on: Sprague Dawley rats; assay: Liver enzymes ALT and AST in serum; type: in vivo; conditions: rat serum, 0, 50, 250 mg/kg, any groups
Experimental: In detail, a single dose of clofibrate or vehicle was administered by gavage (0, 50 and 250 mg/kg) to groups of 18 male Sprague Dawley rats at 11 wks age. Six rats per dose group were euthanized at 6 and 24 h post-dose. Serum (for metabolomics and alanine aminotransferase (ALT), and aspartate aminotransferase (AST)), liver lobes (for histology), and frozen liver and urine (for metabolomics) were collected. Six rats per dose group were placed in metabolism cages for urine collection at −24-0 h, 0-6 h, 6-24 h and 24-48 h. These rats were removed from metabolism cages at 48 h post-dose, for blood and liver collection. The detailed study design is set forth in Chart 1.

[3] = tested on: Sprague Dawley rats; assay: Liver histology; type: in vivo; conditions: rat liver
Experimental: […] Six rats per dose group were euthanized at 6 and 24 h post-dose. Serum (for metabolomics and alanine aminotransferase (ALT), and aspartate aminotransferase (AST)), liver lobes (for histology), and frozen liver and urine (for metabolomics) were collected. Six rats per dose group were placed in metabolism cages for urine collection at −24-0 h, 0-6 h, 6-24 h and 24-48 h. These rats were removed from metabolism cages at 48 h post-dose, for blood and liver collection. The detailed study design is set forth in Chart 1.

[4] = tested on: Sprague Dawley rats; assay: Liver-to-body weight ratio (LBR), F-tests; type: in vivo, rat; conditions: Day 14 animals, with time and with dose, not the interaction of dose-time
Source text: Liver hypertrophy is a well-known clinical end-point of chronic clofibrate exposure, however, the biomarkers of this pathology are unknown. Using the measurements of the liver weight and the body weight of the animals, we calculated the liver-to-body weight ratio (LBR). […] Second, we discovered the components that could classify the LBR in the liver and in the serum. This was accomplished out using a step wise regression method with the LBR as the response variable and all of the components as independent variables. After an iterative selection procedure, 29 of the best components from the serum and the liver were used to build the reduced model given below: […]

[5] = tested on: rats; conditions: cited from earlier work
[6] = tested on: DNA; conditions: short term treatment; Gonzalez et al. (1998); cited from earlier work

CCOC(=O)C(C)(C)Oc1ccc(Cl)cc1 [clofibrate, ethyl-p-chloro-phenoxyisobutyrate]
Hepatic 1-Mono linoleoylglycerol (fold change) ([1]; Day 1, 6 H): 1.11*** fold change
Hepatic 1-Mono oleoylglycerol (fold change) ([1]; Day 1, 6 H): 0.98* fold change
Hepatic 1-Mono palmitoylglycerol (fold change) ([1]; Day 1, 6 H): 0.91** fold change
Hepatic 2-Mono oleoylglycerol (fold change) ([1]; Day 1, 6 H): 1.12*** fold change
Hepatic Cholesterol (fold change) ([1]; Day 1, 6 H): 1.34*** fold change
Hepatic Glucose (aq) (fold change) ([1]; Day 1, 6 H): 0.29* fold change
Hepatic Glycine (fold change) ([1]; Day 1, 6 H): 2.69** fold change
Hepatic Lactic acid (fold change) ([1]; Day 1, 6 H): 1.56** fold change
Hepatic Linoleic acid (fold change) ([1]; Day 1, 6 H): 0.97* fold change
Hepatic Palmitate (fold change) ([1]; Day 1, 6 H): 0.95*** fold change
Hepatic Stearate (fold change) ([1]; Day 1, 6 H): 1.07* fold change
Hepatic 1-Mono stearoylglycerol (fold change) ([1]; Day 1, 24 H): 17.14** fold change
Hepatic Glycerol 1(3)-phosphate (fold change) ([1]; Day 1, 24 H): 2.56* fold change
Hepatic Glycine (fold change) ([1]; Day 1, 24 H): 3.42* fold change
Hepatic L-Aspartic acid (fold change) ([1]; Day 1, 24 H): 27.88*** fold change
Hepatic Lactic acid (fold change) ([1]; Day 1, 24 H): 4.41* fold change
Hepatic Succinic acid (Butanedioic acid) (fold change) ([1]; Day 1, 24 H): 17.05** fold change
Hepatic l-Alanine (fold change) ([1]; Day 1, 24 H): 4.74* fold change
Hepatic 1-Mono palmitoylglycerol (fold change) ([1]; Day 14, 6 H): 0.04** fold change
Hepatic 1-Mono stearoylglycerol (fold change) ([1]; Day 14, 6 H): 0.22** fold change
Hepatic 2-Mono stearoylglycerol (fold change) ([1]; Day 14, 6 H): 0.41* fold change
Hepatic Arachidonic acid (fold change) ([1]; Day 14, 6 H): 0.22*** fold change
Hepatic Cholesterol (fold change) ([1]; Day 14, 6 H): 1.87** fold change
Hepatic Malate (fold change) ([1]; Day 14, 6 H): 0.1** fold change
Hepatic Palmitate (fold change) ([1]; Day 14, 6 H): 0.72** fold change
Hepatic β-Sitosterol (fold change) ([1]; Day 14, 6 H): 0.37** fold change
Hepatic Cholesterol (fold change) ([1]; Day 14, 24 H): 0.69** fold change
Hepatic Docosahexaenoic acid (fold change) ([1]; Day 14, 24 H): 0.58* fold change
Hepatic Glucose (aq) (fold change) ([1]; Day 14, 24 H): 0.39** fold change
Hepatic Malate (fold change) ([1]; Day 14, 24 H): 0.33** fold change
Hepatic β-Sitosterol (fold change) ([1]; Day 14, 24 H): 0.46* fold change
Clofibrate metabolite Propanoic acid, 2-(4-chlorophenoxy)-2-methyl- detected in liver ([1]; GC-MS): (not present in control)
ALT [2]: not elevated
AST [2]: not elevated
Histology: hepatocellular cytologic alterations ([3]; after 14 doses at 250 mg/kg/day, all time points): hepatocellular cytologic alterations (indicating loss of glycogen and eosinophilic granular cytoplasm) were noted
Histology: hepatocellular mitotic figures ([3]; after a single dose, 50 to 250 mg/kg): dose related increase and severity of hepatocellular mitotic figures
Liver-to-body weight ratio (LBR) [4]: significantly increased
Microscopic changes to liver ([5]; 24 h after a single exposure): no microscopic changes
Liver histopathology ([5]; after 2 weeks): induced hypertrophy
DNA adducts [6]: no DNA adducts have been observed

— US20080176266A1, “Biomarkers Of Metabolic Responses To Hepatotoxicants And Carcinogens” (priority 2006, published 2008)
